Measured values reported in patent US6133287A, “Piperidine-indole compounds having 5-HT6 affinity” (Allelix Biopharmaceuticals Inc., priority 1998, dated 2000).
Where a name gives a salt, the structure may show the parent alone. Read-outs that look alike come from different tables or passages of the source.

Legend:
human 5-HT6 receptor [1] = molecular target: T1, human 5-HT6 receptor (Homo sapiens, UniProt P50406); assay: Effect of compounds on the cAMP response of human 5-HT6 receptors (stably transfected HEK293 cells, cAMP EIA); assay type: cell-based; design: expressed in transfected cells; host or cells: HEK293
Experimental: The antagonist (or agonist ) property of compounds for human 5-HT6 receptors was determined by testing their effect on cAMP accumulation in stably transfected HEK293 cells.
Human 5-HT6 receptors were cloned and stably expressed in HEK293 cells. These cells were plated in 6 well plates in DMEM/F12 media with 10% fetal calf serum (FCS) and 500 μg/mL G418 and incubated at 37° C. in a CO2 incubator. The cells were allowed to grow to about 70% confluence before initiation of the experiment.
On the day of the experiment, the culture media was removed, and the cells were washed once with serum free medium (SFM). Two mL of SFM+IBMX media was added and incubated at 37° C. for 10 min. The media were removed and fresh SFM+IBMX media containing various compounds, and 1 μM serotonin (as antagonist) were added to the appropriate wells and incubated for 30 min. […]
cAMP content was determined by EIA (enzyme-immunoassay) using the Amersham Biotrak cAMP EIA kit (Amersham RPN 225). […] Briefly, cAMP is determined by the competition between unlabeled cAMP and a fixed quantity of peroxidase-labelled cAMP for the binding sites on anti-cAMP antibody. […] The reaction is stopped by the addition of 100 μL 1.0 M sulfuric acid and the resultant color read by a microtitre plate spectrophotometer at 450 nM within 30 minutes. […]

human 5-HT6 receptor [2] = molecular target: T1, human 5-HT6 receptor; assay: Binding affinity for the 5-HT6 receptor (3H-LSD radioligand binding, membranes of cells expressing the receptor); design: expressed in transfected cells; settings: 60 minute incubation at 37° C.
Experimental: (§1) All of the compounds of the invention were evaluated using cell types receptive specifically to the 5-HT6 receptor (for cloning and characterization of the human 5-HT6 receptor see Kohen, et al. J. Neurochemistry, 66, 1996: 47-56). […] After a 60 minute incubation at 37° C., the incubation was terminated by vacuum filtration. The filters were washed with buffer and the filters were counted for radioactivity using liquid scintillation spectrometry. The affinity of the test compound for the 5-HT6 receptor was determined by computer-assisted analysis of the data and determining the amount of the compound necessary to inhibit 50% of the binding of the radioligand to the receptor. Concentrations ranging from 10^-11 M to 10^-5 M of the test compound were evaluated.

human 5-HT2c receptor = molecular target: T2, human 5-HT2c receptor (Homo sapiens, UniProt P28335); assay: Selectivity of binding to the human 5-HT6 receptor relative to the human 5-HT2c receptor; settings: 5-HT6 vs 5-HT2c
T2 sequence (P28335 33-458): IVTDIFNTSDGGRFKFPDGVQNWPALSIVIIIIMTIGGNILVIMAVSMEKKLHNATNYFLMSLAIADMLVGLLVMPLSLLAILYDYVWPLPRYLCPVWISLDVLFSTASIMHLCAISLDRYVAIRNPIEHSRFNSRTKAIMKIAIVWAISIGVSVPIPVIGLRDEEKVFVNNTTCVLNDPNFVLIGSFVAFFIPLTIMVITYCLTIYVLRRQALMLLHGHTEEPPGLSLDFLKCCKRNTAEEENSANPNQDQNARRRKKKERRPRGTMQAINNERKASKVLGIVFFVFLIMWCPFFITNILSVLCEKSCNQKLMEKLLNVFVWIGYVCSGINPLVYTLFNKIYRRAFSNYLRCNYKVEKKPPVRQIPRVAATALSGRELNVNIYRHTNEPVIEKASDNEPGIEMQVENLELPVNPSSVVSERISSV
Experimental: as §1

human 5-HT7 receptor = human 5-HT7 receptor (Homo sapiens, UniProt P34969); assay: Selectivity of binding to the human 5-HT6 receptor relative to the human 5-HT7 receptor; settings: 5-HT6 vs 5-HT7
Sequence of human 5-HT7 receptor (P34969 whole entry): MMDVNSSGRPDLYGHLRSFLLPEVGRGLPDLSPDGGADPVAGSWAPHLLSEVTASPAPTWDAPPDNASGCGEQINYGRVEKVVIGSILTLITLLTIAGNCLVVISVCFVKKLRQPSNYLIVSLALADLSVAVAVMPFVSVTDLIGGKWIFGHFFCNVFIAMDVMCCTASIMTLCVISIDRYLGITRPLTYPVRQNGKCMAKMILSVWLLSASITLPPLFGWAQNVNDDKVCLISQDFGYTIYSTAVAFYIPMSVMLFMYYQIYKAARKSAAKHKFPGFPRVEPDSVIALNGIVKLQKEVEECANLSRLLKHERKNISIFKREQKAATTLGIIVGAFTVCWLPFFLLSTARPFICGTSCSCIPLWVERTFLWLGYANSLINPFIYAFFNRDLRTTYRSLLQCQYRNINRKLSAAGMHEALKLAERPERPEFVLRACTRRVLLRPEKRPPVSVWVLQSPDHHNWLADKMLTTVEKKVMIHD

T1 sequence (P50406 whole entry): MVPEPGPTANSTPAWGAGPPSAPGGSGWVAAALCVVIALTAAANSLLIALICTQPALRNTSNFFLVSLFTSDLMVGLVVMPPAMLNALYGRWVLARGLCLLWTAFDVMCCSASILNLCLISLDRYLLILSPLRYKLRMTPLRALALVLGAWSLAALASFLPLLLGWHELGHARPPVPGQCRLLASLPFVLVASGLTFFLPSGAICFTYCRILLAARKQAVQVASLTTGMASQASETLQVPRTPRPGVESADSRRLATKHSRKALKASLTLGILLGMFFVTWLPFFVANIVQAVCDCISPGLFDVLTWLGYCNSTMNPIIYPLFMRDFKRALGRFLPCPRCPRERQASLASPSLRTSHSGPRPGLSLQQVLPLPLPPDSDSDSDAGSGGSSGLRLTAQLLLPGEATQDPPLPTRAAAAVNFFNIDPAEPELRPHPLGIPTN

SMILES | Ki (human 5-HT6 receptor [2]; Ki) | other results
CN1CC=C(c2cn(S(=O)(=O)c3ccc(F)cc3)c3ccc(F)cc23)CC1 [6 cc] |  | EC50 (human 5-HT6 receptor [1]; read-out: EC50, concentration causing 50% inhibition of the serotonin-stimulated cAMP response, 1 μM serotonin, 30 min): 10 nM
CN1CC=C(c2cn(C(=O)c3cc(Cl)ccc3Cl)c3c(F)cc(F)cc23)CC1 [Example 7as, 1-(2,5-Dichlorobenzoyl)-5,7-difluoro-3-(1-methyl-1,2,3,6-tetrahydro-4-pyridinyl)indole] | ≤ 50 nM | 
CN1CCC(c2c[nH]c3cc(Cl)ccc23)CC1 [Example 5b, 6-Chloro-3-(1-methyl-4-piperidinyl)-1H-indole] |  | EC50 (human 5-HT6 receptor [1]; 1 μM serotonin, 30 min, read-out: EC50, concentration causing 50% inhibition of the serotonin-stimulated cAMP response): 1900 nM
CN1CC=C(c2cn(C(=O)c3ccccc3Cl)c3ccc(OC4CCCCC4)cc23)CC1 [Example 7aaa, 1-(2-Chlorobenzoyl)-5-cyclohexyloxy-3-(1-methyl-1,2,3,6-tetrahydro-4-pyridinyl) indole] | ≤ 5 nM | 
CN1CC=C(c2cn(C(=O)c3ccccc3Cl)c3ccc(F)cc23)CC1 [Example 6c, 1-(2-Chlorobenzoyl)-5-fluoro-3-(1-methyl-1,2,3,6-tetrahydro-4-pyridinyl)indole] | ≤ 5 nM | 
CN1CC=C(c2cn(S(=O)(=O)c3ccc(Br)cc3)c3c(F)cc(F)cc23)CC1 [Example 7am, 1-(4-Bromophenylsulfonyl)-5,7-difluoro-3-(1-methyl-1,2,3,6-tetrahydro-4-pyridinyl)indole] | ≤ 5 nM | 
CN1CC=C(c2cn(S(=O)(=O)c3ccc4ccccc4c3)c3c(F)cc(F)cc23)CC1 [Example 7ap, 5,7-Difluoro-3-(1-methyl-1,2,3,6-tetrahydro-4-pyridinyl)-1-(2-naphthylsulfonyl)indole] | ≤ 5 nM | 
CN1CC=C(c2cn(C(=O)c3ccccc3)c3ccc(Br)cc23)CC1 [Example 6g, 1-Benzoyl-5-bromo-3-(1-methyl-1,2,3,6-tetrahydro-4-pyridinyl)indole] | ≤ 50 nM | greater affinity for human 5-HT6 receptor relative to human 5-HT2c receptor (human 5-HT2c receptor): ≥ 60 fold; greater affinity for human 5-HT6 receptor relative to human 5-HT7 receptor (human 5-HT7 receptor): ≥ 60 fold
CN1CC=C(c2cn(S(=O)(=O)c3ccc4ccccc4c3)c3ccc(F)cc23)CC1 [Example 7hh, 5-Fluoro-3-(1-methyl-1,2,3,6-tetrahydro-4-pyridinyl)-1-(2-naphthylsulfonyl)indole] |  | greater affinity for human 5-HT6 receptor relative to human 5-HT2c receptor (human 5-HT2c receptor): ≥ 60 fold; greater affinity for human 5-HT6 receptor relative to human 5-HT7 receptor (human 5-HT7 receptor): ≥ 60 fold
COc1ccc(S(=O)(=O)n2cc(C3=CCN(C)CC3)c3cc(C(F)(F)F)ccc32)cc1 [Example 7vv, 1-(4-Methoxyphenylsulfonyl)-3-(1-methyl-1,2,3,6-tetrahydro-4-pyridinyl)-5-trifluoromethylindole hydrochloride] | ≤ 50 nM | 
CN1CC=C(c2cn(C(=O)c3c(Cl)cccc3Cl)c3ccc(F)cc23)CC1 [Example 6f, 1-(2,6-Dichlorobenzoyl)-5-fluoro-3-(1-methyl-1,2,3,6-tetrahydro-4-pyridinyl)indole] | ≤ 5 nM | 
CN1CC=C(c2cn(C(=O)c3ccc(F)cc3)c3c(F)cc(F)cc23)CC1 [Example 7ar, 5,7-Difluoro-1-(4-fluorobenzoyl)-3-(1-methyl-1,2,3,6-tetrahydro-4-pyridinyl)indole] | ≤ 5 nM | 
CN1CC=C(c2cn(S(=O)(=O)c3ccccc3Br)c3ccc(F)cc23)CC1 [Example 7bb, 1-(2-Bromophenylsulfonyl)-5-fluoro-3-(1-methyl-1,2,3,6-tetrahydro-4-pyridinyl)indole] |  | greater affinity for human 5-HT6 receptor relative to human 5-HT2c receptor (human 5-HT2c receptor): ≥ 60 fold; greater affinity for human 5-HT6 receptor relative to human 5-HT7 receptor (human 5-HT7 receptor): ≥ 60 fold
CN1CC=C(c2cn(C(=O)c3ccccc3)c3ccc(Cl)cc23)CC1 [Example 7jjj, 1-Benzoyl-5-chloro-3-(1-methyl-1,2,3,6-tetrahydro-4-pyridinyl)indole hydrochloride] | ≤ 50 nM | 
CN1CC=C(c2cn(S(=O)(=O)c3ccccc3)c3ccc(C(F)(F)F)cc23)CC1 [Example 7rr, 3-(1-Methyl-1,2,3,6-tetrahydro-4-pyridinyl)-1-phenylsulfonyl-5-trifluoromethylindole hydrochloride] | ≤ 5 nM | 
CN1CCC(c2cn(S(=O)(=O)c3ccccc3)c3ccccc23)CC1 [Example 7uuu, 3-(1-Methyl-4-piperidinyl)-1-phenylsulfonylindole] |  | Ki (human 5-HT6 receptor [2]; read-out: Ki): ≤ 50 nM
CN1CC=C(c2cn(S(=O)(=O)c3ccc(F)cc3)c3ccc(F)cc23)CC1 [Example 7cc, 1-(4-Fluorophenylsulfonyl)-5-fluoro-3-(1-methyl-1,2,3,6-tetrahydro-4-pyridinyl)indole] | ≤ 5 nM | 
Cc1ccc(S(=O)(=O)n2cc(C3=CCN(C)CC3)c3cc(OC4CCCCC4)ccc32)cc1 [Example 7i, 5-Cyclohexyloxy-1-(4-methylphenylsulfonyl)-3-(1-methyl-1,2,3,6-tetrahydro-4-pyridinyl)indole] |  | greater affinity for human 5-HT6 receptor relative to human 5-HT2c receptor (human 5-HT2c receptor): ≥ 60 fold; greater affinity for human 5-HT6 receptor relative to human 5-HT7 receptor (human 5-HT7 receptor): ≥ 60 fold
CN1CC=C(c2cn(S(=O)(=O)c3cccc4ccccc34)c3ccc(F)cc23)CC1 [Example 7gg, 5-Fluoro-3-(1-methyl-1,2,3,6-tetrahydro-4-pyridinyl)-1-(1-naphthylsulfonyl)indole] | ≤ 50 nM | 
CN1CC=C(c2cn(C(=O)c3c(Cl)cccc3Cl)c3ccc(C(F)(F)F)cc23)CC1 [Example 7qqq, 1-(2,6-Dichlorobenzoyl)-3-(1-methyl-1,2,3,6-tetrahydro-4-pyridinyl)-5-trifluoromethyl-indole] | ≤ 50 nM | 
CN1CC=C(c2cn(S(=O)(=O)c3ccccc3)c3cc(Br)ccc23)CC1 [Example 7j, 6-Bromo-3-(1-methyl-1,2,3,6-tetrahydro-4-pyridinyl)-1-phenylsulfonylindole] | ≤ 50 nM | 
CN1CC=C(c2cn(S(=O)(=O)c3ccccc3)c3c(F)cc(F)cc23)CC1 [Example 7aj, 5,7-Difluoro-3-(1-methyl-1,2,3,6-tetrahydro-4-pyridinyl)-1-phenylsulfonylindole] | ≤ 5 nM | 
Cc1ccc(S(=O)(=O)n2cc(C3=CCN(C)CC3)c3cc(F)ccc32)cc1 [Example 6b, 5-Fluoro-1-(4-methylphenylsulfonyl)-3-(1-methyl-1,2,3,6-tetrahydro-4-pyridinyl)indole] |  | greater affinity for human 5-HT6 receptor relative to human 5-HT2c receptor (human 5-HT2c receptor): ≥ 60 fold; greater affinity for human 5-HT6 receptor relative to human 5-HT7 receptor (human 5-HT7 receptor): ≥ 60 fold
CN1CC=C(c2cn(S(=O)(=O)c3ccccc3)c3ccc(OC4CCCCC4)cc23)CC1 [Example 7m, 5-Cyclohexyloxy-3-(1-methyl-1,2,3,6-tetrahydro-4-pyridinyl)-1-phenylsulfonylindole] | ≤ 50 nM | 
CN1CC=C(c2cn(S(=O)(=O)c3ccccc3)c3ccc(Cl)cc23)CC1 [Example 7jj, 5-Chloro-3-(1-methyl-1,2,3,6-tetrahydro-4-pyridinyl)-1-phenylsulfonylindole] | ≤ 5 nM | 
CN1CC=C(c2cn(S(=O)(=O)c3ccccc3)c3ccc(F)cc23)CC1 [Example 7ii, 5-Fluoro-3-(1-methyl-1,2,3,6-tetrahydro-4-pyridinyl)-1-phenylsulfonylindole] | ≤ 5 nM | 
CN1CC=C(c2cn(S(=O)(=O)c3ccc(Cl)cc3)c3ccc(F)cc23)CC1 [Example 7dd, 1-(4-Chlorophenylsulfonyl)-5-fluoro-3-(1-methyl-1,2,3,6-tetrahydro-4-pyridinyl)indole] |  | greater affinity for human 5-HT6 receptor relative to human 5-HT2c receptor (human 5-HT2c receptor): ≥ 60 fold; greater affinity for human 5-HT6 receptor relative to human 5-HT7 receptor (human 5-HT7 receptor): ≥ 60 fold
